Where two headings read alike, the source gives them in different places.
Tests used:
[1] = molecular target: T1, CYP3A4 (Homo sapiens, UniProt P08684); test: Cytochrome P450 assay (recombinant human CYP isoforms, fluorescence); format: in vitro ADME
T1 construct: host or cells: baculovirus-infected insect cells
Method: The ability of compound to inhibit the major human cytochrome P450s (CYPs) responsible for drug metabolism was evaluated in vitro using recombinant human CYP isoforms. […] CYP3A4 inhibition was evaluated with two substrates: 7-benzyloxy-4-trifluoromethylcoumarin (BFC) and resorufin benzyl ether (BzRes). A single concentration of each model substrate (at approximately the apparent Km, with the exception of BFC, which was tested below the apparent Km) and multiple concentrations of the test compounds, separated by approximately ½ log units, were tested in duplicate. Metabolism of the model substrates was assayed by the production of 7-hydroxy-3-cyanocoumarin, 3-[2-(N,N-diethylamino)ethyl]-7-hydroxy-4-methylcoumarin, 7-hydroxy-4-trifluoromethylcoumarin or resorufin, and measured via fluorescence detection. Assays were conducted in 96-well microtiter plates in the presence of an NADPH generating system. Positive control samples were included in these studies. […] The IC50 values were calculated utilizing XLfit curve-fitting software.

[2] = Pharmacokinetic parameters obtained in mice, 8 h oral exposure study; format: in vivo; details: mouse, serum; single oral dose 50 mg/kg, solution in 70% PEG400/30% water, fasted male Balb/C mice; read-out: Pharmacokinetic Parameters AUC0-8 h
Method: Pharmacokinetic Parameters Obtained in Mice. In a 8 h oral exposure studies, a single-dose of 50 mg/kg of the compounds were delivered as a solution in 70% PEG400/30% water by oral gavage to fasted adult male Balb/C mice (n=2 or 3 per compound). Three serum samples were collected from each mouse at 0.5, 1, 4, 8 h time points following oral dosing. The first two samples were obtained by retro-orbital bleed (˜100 μL/20-25 g mouse) and the third sample by cardiac puncture. The blood samples were allowed to clot on ice, centrifuged and then serum harvested. Plasma samples were stored at −20° C. prior to analysis. The plasma samples were analyzed for parent compound via HPLC coupled tandem mass spectrometry (LC/MS/MS).

[3] = tested on: GTL-16 human gastric carcinoma model; test: In vivo efficacy against GTL-16 gastric carcinoma xenografts
Description: In Vivo Efficacy Determination […] FIG. 1. Antitumor activity against GTL-16 gastric carcinoma xenografts

[4] = tested on: U87 human glioblastoma model; test: In vivo efficacy against U87 glioblastoma xenografts
Description: In Vivo Efficacy Determination […] FIG. 2. Antitumor activity against U87 glioblastoma xenografts

[5] = molecular target: T2, GST-Met kinase (Homo sapiens, UniProt P08581); test: Met kinase assay; format: biochemical; details: 1 μM ATP, polyGlu:Tyr (4:1) substrate, 60 min at 30° C.
T2 construct: host or cells: baculovirus expression system
T2 sequence (P08581 25-1390): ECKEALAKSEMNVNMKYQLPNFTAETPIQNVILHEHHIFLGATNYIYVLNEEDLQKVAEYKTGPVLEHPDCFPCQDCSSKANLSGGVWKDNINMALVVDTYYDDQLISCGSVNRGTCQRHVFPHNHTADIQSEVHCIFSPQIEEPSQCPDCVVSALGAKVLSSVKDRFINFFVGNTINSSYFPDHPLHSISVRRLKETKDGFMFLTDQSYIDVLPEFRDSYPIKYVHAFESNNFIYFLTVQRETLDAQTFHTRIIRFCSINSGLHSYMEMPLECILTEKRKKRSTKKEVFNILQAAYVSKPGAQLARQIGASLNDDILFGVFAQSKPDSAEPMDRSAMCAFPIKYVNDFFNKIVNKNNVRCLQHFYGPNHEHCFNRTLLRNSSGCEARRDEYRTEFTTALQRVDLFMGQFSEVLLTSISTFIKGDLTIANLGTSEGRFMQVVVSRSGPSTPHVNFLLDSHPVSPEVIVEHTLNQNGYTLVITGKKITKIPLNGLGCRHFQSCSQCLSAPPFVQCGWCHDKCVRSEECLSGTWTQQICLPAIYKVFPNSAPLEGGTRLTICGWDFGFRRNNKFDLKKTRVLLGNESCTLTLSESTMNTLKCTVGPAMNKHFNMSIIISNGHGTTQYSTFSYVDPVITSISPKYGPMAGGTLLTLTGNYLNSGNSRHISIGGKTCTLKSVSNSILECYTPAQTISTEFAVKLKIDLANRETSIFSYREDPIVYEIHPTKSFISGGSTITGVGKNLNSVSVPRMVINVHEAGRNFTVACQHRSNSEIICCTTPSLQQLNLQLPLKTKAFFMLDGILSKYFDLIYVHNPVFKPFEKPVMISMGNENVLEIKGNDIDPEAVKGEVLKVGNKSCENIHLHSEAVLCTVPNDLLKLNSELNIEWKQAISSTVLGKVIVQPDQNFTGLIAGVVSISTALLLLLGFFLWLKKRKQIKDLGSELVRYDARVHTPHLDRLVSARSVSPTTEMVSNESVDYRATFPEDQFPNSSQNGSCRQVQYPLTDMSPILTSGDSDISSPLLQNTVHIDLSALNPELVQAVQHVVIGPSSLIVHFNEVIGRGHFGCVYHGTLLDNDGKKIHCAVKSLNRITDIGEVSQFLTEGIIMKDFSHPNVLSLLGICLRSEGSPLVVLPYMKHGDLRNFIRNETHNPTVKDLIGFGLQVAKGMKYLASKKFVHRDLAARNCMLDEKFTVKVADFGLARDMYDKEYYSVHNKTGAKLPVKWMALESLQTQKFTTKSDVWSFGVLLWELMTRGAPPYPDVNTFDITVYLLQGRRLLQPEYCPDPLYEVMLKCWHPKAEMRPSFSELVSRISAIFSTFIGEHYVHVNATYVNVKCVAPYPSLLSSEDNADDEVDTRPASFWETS
Method: Incubation mixtures employed for the Met kinase assay contain a baculovirus expressed GST-Met kinase, the synthetic substrate polyGlu:Tyr, (4:1), ATP, ATP-γ-^33 P and buffer containing Mn^++, DTT, BSA, and Tris. Reactions were incubated for 60 minutes at 30° C. and stopped by the addition of cold trichloroacetic acid (TCA) to a final concentration 8%. TCA precipitates were collected onto GF/C unifilter plates (Packard Instrument Co., Meriden, Conn.) using a Filtermate universal harvester (Packard Instrument Co., Meriden, Conn.) and the filters are quantitated using a TopCount 96/384-well liquid scintillation counter (Packard Instrument Co., Meriden, Conn.). Dose response curves were generated to determine the concentration required to inhibit 50% of kinase activity (IC—50). Compounds were dissolved at 10 mM in dimethyl sulfoxide (DMSO) and evaluated at ten concentrations, each in duplicate. The final concentration of DMSO in the assay is 1.7%. IC—50 values were derived by non-linear regression.

T1 sequence (P08684 whole entry, canonical isoform): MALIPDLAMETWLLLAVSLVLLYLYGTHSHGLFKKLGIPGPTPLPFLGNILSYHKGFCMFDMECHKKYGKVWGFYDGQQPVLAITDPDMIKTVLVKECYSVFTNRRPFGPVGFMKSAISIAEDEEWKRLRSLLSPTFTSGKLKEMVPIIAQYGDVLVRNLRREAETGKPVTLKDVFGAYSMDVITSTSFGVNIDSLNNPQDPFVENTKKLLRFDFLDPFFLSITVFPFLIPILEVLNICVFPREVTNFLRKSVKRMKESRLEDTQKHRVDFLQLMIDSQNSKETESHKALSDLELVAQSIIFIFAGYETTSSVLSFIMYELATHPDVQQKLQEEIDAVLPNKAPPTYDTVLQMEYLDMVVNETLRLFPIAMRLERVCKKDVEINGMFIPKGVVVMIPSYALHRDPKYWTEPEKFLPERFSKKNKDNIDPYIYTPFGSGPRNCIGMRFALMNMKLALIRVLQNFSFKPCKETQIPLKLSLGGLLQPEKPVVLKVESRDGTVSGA

Structure (SMILES) | IC50 ([1]; substrate 7-benzyloxy-4-trifluoromethylcoumarin (BFC), read-out: CYP 3A4-BFC IC50) | IC50 ([1]; substrate resorufin benzyl ether (BzRes), read-out: CYP 3A4-BZR IC50) | AUC(0-t) [2] | overt toxicity ([3]; GTL-16 study, 6.25 mg/kg to 50 mg/kg dosed once a day for 14 days) | maximum efficacious dose level ([3]; GTL-16 tumor xenograft) | minimum efficacious dose (MED) ([3]; GTL-16 tumor xenograft) | antitumor activity ([3]; GTL-16 xenografts, 25 mg/kg) | antitumor activity ([3]; GTL-16 xenografts, 50 mg/kg) | antitumor activity at higher dose ([3]; GTL-16 xenografts, 100 mg/kg, previously described study) | tumor growth inhibition (TGI) ([3]; GTL-16 xenografts, lowest dose level tested, 6.25 mg/kg) | tumor growth inhibition (TGI) ([3]; GTL-16 xenografts, multiple dose levels ranging from 6.25 mg/kg to 50 mg/kg, once a day for 14 days, for at least one tumor doubling time) | antitumor activity ([4]; 25 mg/kg) | antitumor activity ([4]; 50 mg/kg) | IC50 [5]
Cl.Nc1cc(Oc2ccc(NC(=O)c3cccn(-c4ccc(F)cc4)c3=O)cc2F)ccn1 [Compound 2, N-(4-(2-Aminopyridin-4-yloxy)-3-fluorophenyl)-1-(4-fluorophenyl)-2-oxo-1,2-dihydropyridine-3-carboxamide, hydrochloride salt] | 510 nM | 6400 nM | 33 µM·h |  |  |  |  |  |  |  |  |  |  | 
CCOc1ccn(-c2ccc(F)cc2)c(=O)c1C(=O)Nc1ccc(Oc2ccnc(N)c2Cl)c(F)c1 [Compound 1, N-(4-(2-Amino-3-chloropyridin-4-yloxy)-3-fluorophenyl)-4-ethoxy-1-(4-fluorophenyl)-2-oxo-1,2-dihydropyridine-3-carboxamide] |  |  | 236 µM·h | No overt toxicity was observed | 25 mg/kg | 6.25 mg/kg | complete tumor stasis | complete tumor stasis | no increase in activity was observed | greater than 50% | greater than 50% | complete tumor stasis | complete tumor stasis | 3.5 nM
